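Interpolation was linear, between the two tested concentrations surrounding the appropriate level; five concentrations were tested over 48 hours in 96-well plates. Abbreviation: GI50, concentration required for 50% inhibition of growth. TGI denotes the concentration required for complete inhibition of growth.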
Assays:
Experiment in all cases: inhibition of tumour cell growth, NCI panel, 48 h
[1] = tested on: A549 NSCLC
[2] = tested on: HCT-116 colon
[3] = tested on: K-562 leukemia
[4] = tested on: M14 melanoma
[5] = tested on: NCI-H522 lung
[6] = tested on: SF-268 CNS
[7] = tested on: SK-MEL-28 melanoma
[8] = tested on: TK-10 renal
[9] = tested on: UACC-257 melanoma
[10] = tested on: UO-31 renal

For `COc1ccc(C2CC(c3ccc4ccccc4c3)=NN2/C=C2\SC(=S)N(NC(=O)Cc3ccccc3Nc3c(Cl)cccc3Cl)C2=O)cc1` (stereo not drawn), the GI50 [1] was 0.507 µM, the TGI [1] was > 47.2 µM and the GI50 [2] was 0.482 µM. The TGI [2] was > 39.6 µM, the GI50 [3] was 0.402 µM and the TGI [3] was > 100 µM. The GI50 [4] was 0.4 µM, the TGI [4] was 5.4 µM and the GI50 [5] was 0.372 µM. The TGI [5] was 4.76 µM, the GI50 [6] was 0.809 µM and the TGI [6] was > 48.8 µM. The GI50 [7] was 4.45 µM, the TGI [7] was > 50 µM and the GI50 [8] was 3.57 µM. The TGI [8] was 43.2 µM, the GI50 [9] was 3.86 µM and the TGI [9] was > 100 µM. For the same molecule, the GI50 [10] was 0.354 µM.
`O=C(CC(O)c1cccnc1)CC(O)c1cccnc1` (stereo not drawn) was tested, and the TGI [1] was 47.7 µM, the TGI [2] was 4.33 µM and the TGI [3] was > 51.5 µM. The TGI [4] was 27.8 µM, the TGI [5] was 32.1 µM and the TGI [6] was > 95.9 µM. For the same molecule, the TGI [7] was 44.2 µM, the TGI [8] was > 100 µM and the TGI [9] was 36.1 µM. The TGI [10] was 32.5 µM.
Molecule `OCCNC(=S)Nc1ccc(-c2nc(N3C[C@H]4CC[C@@H](C3)O4)c3cccn3n2)cc1` has a GI50 [1] of 0.0856 µM, a TGI [1] of 2.75 µM and a GI50 [2] of 0.357 µM. The TGI [2] was 21.7 µM, the GI50 [3] was 0.266 µM and the TGI [3] was > 37.6 µM. It also gave a GI50 [4] of 0.0654 µM, a TGI [4] of 5.93 µM and a GI50 [5] of 0.029 µM. For the same molecule, the TGI [5] was 3.37 µM, the GI50 [6] was 0.079 µM and the TGI [6] was 25.8 µM. For the same molecule, the GI50 [7] was 0.028 µM, the TGI [7] was 0.499 µM and the GI50 [8] was 0.0269 µM. For the same molecule, the TGI [8] was 0.399 µM, the GI50 [9] was 0.0354 µM and the TGI [9] was 0.467 µM. The GI50 [10] was < 0.0152 µM and the TGI [10] was 0.194 µM.
In the case of `Cc1ccccc1NC(=O)N/C(N)=N/c1nc(C)c(C)s1`, the GI50 [1] is reported as 0.545 µM, the TGI [1] is reported as > 100 µM and the GI50 [2] is reported as 0.321 µM. The TGI [2] was > 75.9 µM, the GI50 [3] was 0.0429 µM and the TGI [3] was > 100 µM. The GI50 [4] was 0.121 µM, the TGI [4] was > 100 µM and the GI50 [5] was 0.0478 µM. The TGI [5] was > 42.5 µM, the GI50 [6] was 15.9 µM and the TGI [6] was > 100 µM. The GI50 [7] was 23.7 µM, the TGI [7] was > 100 µM and the TGI [8] was > 100 µM. For the same molecule, the GI50 [9] was > 100 µM, the TGI [9] was > 100 µM and the GI50 [10] was 1.1 µM. For the same molecule, the TGI [10] was > 100 µM.
With `N=C(N)c1ccc(CS(=O)(=O)F)cc1` the GI50 [1] was > 100 µM, the TGI [1] was > 100 µM and the GI50 [2] was > 100 µM. For the same molecule, the TGI [2] was > 100 µM, the GI50 [3] was > 100 µM and the TGI [3] was > 100 µM. For the same molecule, the GI50 [4] was > 100 µM, the TGI [4] was > 100 µM and the GI50 [5] was > 100 µM. For the same molecule, the TGI [5] was > 100 µM, the GI50 [6] was > 100 µM and the TGI [6] was > 100 µM. The GI50 [7] was > 100 µM, the TGI [7] was > 100 µM and the GI50 [8] was > 100 µM. For the same molecule, the TGI [8] was > 100 µM, the GI50 [9] was > 100 µM and the TGI [9] was > 100 µM. The GI50 [10] was > 100 µM and the TGI [10] was > 100 µM.
`O=C1C[C@@H]2[C@@H](C=CC23CC3)N1O` was tested, and the TGI [1] was > 100 µM, the TGI [2] was > 100 µM and the TGI [3] was > 100 µM. For the same molecule, the TGI [4] was > 100 µM, the TGI [5] was > 100 µM and the TGI [6] was > 100 µM. The TGI [7] was > 100 µM, the TGI [8] was > 100 µM and the TGI [9] was > 100 µM. For the same molecule, the TGI [10] was > 100 µM.
In the case of `CC(=O)O[C@H]1CC[C@@]2(C)C(=CC[C@@H]3C2CC[C@]2(C)C(=O)NC(=O)CC32)C1` (stereo partly drawn), the TGI [1] is reported as > 100 µM, the TGI [2] is reported as > 100 µM and the TGI [3] is reported as > 100 µM. The TGI [4] was > 100 µM, the TGI [5] was 86.2 µM and the TGI [6] was > 100 µM. For the same molecule, the TGI [7] was > 100 µM, the TGI [8] was > 100 µM and the TGI [9] was > 100 µM. For the same molecule, the TGI [10] was > 100 µM.

Source: PubChem BioAssay (NCI)
